Data set [1] can be described thus: Ascorbate depletion assay, CuSO4-sponsored oxidation, recycling of DHA. As to conditions: CuSO4 model. On the procedure: (§1) The kinetics of ascorbate oxidation, sponsored by both 1 μM 9,10-PQ and 2 μM copper sulphate (CuSO4), was examined using the ascorbate depletion assay (Kelly et al, Res. Rep. Health Eff. Inst., 163, 3 (2011). 9,10-PQ was employed so that the action of NBMI could be examined in isolation of its chelation properties.
(§2) All experiments were performed in triplicate in UV 96 well flat-bottomed plates (Greiner bio-one) at a final volume of 200 μL. Exposures were initiated by the addition of 20 μL of a concentrated stock of ascorbate (2 mM) into each well containing 160 μL of Chelex-100 resin treated water (containing 10% DMSO), plus either 10 μL of water, CuSO4 stock solution at 4 mM or 9,10-PQ stock solution at 2 mM, and 10 μL of NMBI (4 mM and […]).
(§3) All solutions were prepared in Chelex-100 resin treated water (containing 10% DMSO). This yielded final concentrations in the wells of […], 2 μM CuSO4, or 1 μM 9,10-PQ and between 10 and 200 μM of NBMI.
(§4) Immediately prior to the addition of the ascorbate to each assay well, the plate was pre-incubated for 10 minutes at 37° C. in a plate reader (Spectra Max 190). During the exposure, the plate was maintained at this temperature. After addition of ascorbate, the concentration remaining in each well was monitored every 2 minutes for a period of two hours by measuring the absorbance at 265 nm. The ascorbate concentration was determined with reference to a standard curve, with the rate of ascorbate oxidation determined by performing a linear regression through the initial part of a concentration verses time plot using Microcal Software Limited's OriginLab (version 5.0). This was performed for each of the triplicates and the rate of ascorbate depletion was finally expressed as mean mol s 1×10^−9 depletion of ascorbate±standard deviation.
(§5) For the experiments in which the impact of adding NBMI to the ascorbate was measured, CuSO4 and 9,10-PQ depletion assays were examined later in the time course. The plates were ran with 190 μL only for the first 55-60 minutes, after which they were removed from the plate reader and 10 μL of either the NMBI or the known reducing agent, DTT stock solution, or water was added to each well. The plate was then returned to the plate reader and the absorbance at 265 nm monitored for a further 60 minutes.
(§6) The immediate increase in the measured ascorbate concentrations was determined and is referred to as the ‘jump’, as a measure of immediate recycling capacity. The sustained ‘increase’ over the remaining 60 minutes of the incubation was also determined.

A short description of data set [2]: Ascorbate depletion assay, 9,10-PQ-sponsored oxidation, recycling of DHA. As to conditions: 9,10-PQ model, 200 μM added at 60 minutes. On the procedure: as §1, §2, §3, §4, §5, §6

Each structure is given as a SMILES string.

The text below walks through data of patent publication US9782368B2, “Use of N,N-bis-2-mercaptoethyl isophthalamide” (EMERAMED LIMITED, priority 2014, dated 2017).

Regarding `O=C(NCCS)c1cccc(C(=O)NCCS)c1` [NBMI, N,N-bis-2-mercaptoethyl isophthalamide], in data set [1] (200 μM added at 60 minutes), the “immediate 'jump' in ascorbate concentration” value was 24.98 ± 5.54 µM and the “sustained 'increase' in ascorbate over remaining 60 minutes” value is 25.45 ± 2.45 µM. In addition, in data set [1] (addition at 10, 20 and 30 minutes), the “subsequent rate of oxidation after addition” value is recorded as “quenched”. Also, in data set [2], the “immediate rebound increase in ascorbate” value was determined as 42.8 µM and the “rate of ascorbate oxidation after addition” value is on record as “reduced relative to the first 60 minute period”.
